Series [1] concerns rat bladder (K^+ -induced contractions). In words: Inhibition of K^+ -induced rat bladder contractions. Also noted: species or system rat (male Sprague Dawley). Particulars: for IC50: 0.5 h, KCl 80 mM, 30 min after drug, isolated rat bladder; for activity of N-oxide compounds: in words, based on the Table. The method, then:
Female Albino Swiss mice [Crl: CD-1 (ICR) BR] with a body weight of 20-30 g and male Sprague Dawley rats [Crl: CD° BR] with a body weight of 200-300 g, from the Charles River Farm, Italy, were used for the trials. The animals were housed with free access to food and water and kept on a forced light-darkness cycle at 22°-24° C. until the day of the trials. Male rats were killed by a blow on their heads and their lower abdomens were opened along the midlines. Their urinary bladders were removed by a transverse dissection above the trigone and cut into two fragments (20-30 mm long, 1-2 mm wide). Each fragment was suspended in an isolated organ bath containing 10 ml of a normal Tyrode solution (composition in mM: NaCl 137, KCl 2.68, MgCl2 1.11, CaCl2 1.8, NaH2 PO4 0.41, NaHCO3 11.9, glucose 5.55) and connected, under a steady 1 g load, to an isometric transducer (DY-1, Basile). The solution was gassed with a mixture of 95% O2 and 5% CO2 and heated at 37° C. After a 60 minute equilibration the tension responses to a single KCl dose (Bath concentration=80 mM) inducing phasic and tonic contractions were measured under isometric conditions at 30 minute intervals. After recording one or more reproducible responses, a solution of the test drug was added to the bath (final concentration from 10^-4 to 10^-9 M) and 30 minutes later a new contraction was induced. The experimental groups were made up of at least 2 preparations from different animals for each drug concentration tested. The IC50 values of the inhibition of the agonist-induced contractions were evaluated by linear regression analysis.

The nature of series [2]: Acute toxicity in mice (LD50). It is filed as in vivo. Particulars: mouse, in vivo, mice, death rate 7 days after administration. The method, then:
(§1) Female Albino Swiss mice [Crl: CD-1 (ICR) BR] with a body weight of 20-30 g and male Sprague Dawley rats [Crl: CD° BR] with a body weight of 200-300 g, from the Charles River Farm, Italy, were used for the trials. The animals were housed with free access to food and water and kept on a forced light-darkness cycle at 22°-24° C. until the day of the trials.
(§2) The acute toxicity was evaluated in female Albino Swiss mice after intraperitoneal or oral administrations. Four logarithmic scaled doses of the compounds were dissolved or suspended in 0.5% aqueous Methocel and administered at a volume of 10 ml/kg to groups of 4 mice/dose. The death rate was recorded 7 days after the administration.
(§3) The LD50 values and the relevant confidence limits were calculated according to the method of Weil (Biometrics, 8, 249, 1952).

Series [3] is described as follows: Stability at 37° C. and physiological pH (phosphate buffer, pH=7.4). Particulars: pH 7.4 phosphate buffer, read-out: Stability at pH 7.4, % Unchanged after 3 h. It is filed as physicochemical. The source says: The stability of the other compounds of the invention was not investigated as they are known to be less subject to degradation than the esters.
The next series concerns Female Albino Swiss mice. Put plainly: Acute toxicity in mice (LD50). It counts as in vivo. Particulars: in words; LD50/IC50 compared with Flavoxate. The method, then: as §1, §2, §3
Setting [4] is: phasic contraction, read-out: IC50, inhibition of K^+ -induced rat bladder contractions, Phasic.
The mark [5] stands for this setting: tonic contraction, read-out: IC50, inhibition of K^+ -induced rat bladder contractions, Tonic.
Where [6] appears, read: ip, i.p., read-out: Mice LD50 i.p.
Setting [7] is: po, p.o., read-out: Mice LD50 p.o.

Each structure is given as a SMILES string. Where a name gives a salt, the structure may show the parent alone. Read-outs that look alike come from different tables or passages of the source. Some results are limits rather than exact numbers.

For orientation: IC50 means the point on the concentration scale where inhibition reaches its midpoint. The term LD50 denotes the dose expected to kill half of the subjects tested. With `COc1ccc(C(C#N)(CCCN(C)CC(=O)c2cccc3c(=O)c(C)c(-c4ccccc4)oc23)C(C)C)cc1OC.Cl.O` (centres unmarked) [Example 1, 8-{2-[4-Cyano-4-(3,4-dimethoxyphenyl)-5,N-dimethylhexylamino]-1-oxoethyl}-3-methyl-4-oxo-2-phenyl-4H-1-benzopyran hydrochloride hydrate], the half-inhibitory concentration (IC50) in series [1] (setting [4]) was 10000 nM; in series [1] (setting [5]) it was greater than 10000 nM. Further, the values for the LD50 at 168 h in series [2] (setting [6]) and in series [2] (setting [7]) were 475 mg/kg and greater than 3000 mg/kg, respectively.

For `COc1ccc(CCN(C)CCCOC(=O)c2cccc3c(=O)c(C)c(-c4ccccc4)oc23)cc1OC.Cl` [Example 2, 8-{3-[2-(3,4-Dimethoxyphenyl)-N-methylethylamino]propoxycarbonyl}-3-methyl-4-oxo-2-phenyl-4H-1-benzopyran hydrochloride], the half-maximal inhibitory concentration (IC50) in series [1] (setting [4]) was determined as 1000 nM; in series [1] (setting [5]) it was 500 nM. For the same compound, the LD50 at 168 h is 773 mg/kg in series [2] (setting [6]) and 2260 mg/kg in series [2] (setting [7]).

As to `COc1ccc(CC[N+](C)([O-])CCCOC(=O)c2cccc3c(=O)c(C)c(-c4ccccc4)oc23)cc1OC` (centres unmarked) [Example 3, 8-{3-[2-(3,4-Dimethoxyphenyl)-N-methyl-N-oxoethylamino]-propoxycarbonyl}-3-methyl-4-oxo-2-phenyl-4H-1-benzopyran hydrochloride], the IC50 in series [1] (setting [4]) and in series [1] (setting [5]) was greater than 10000 nM each time. Further, the “activity of N-oxide compounds” value in series [1] is on record as “do not appear to be very active”. Further, the median lethal dose (LD50) at 168 h in series [2] (setting [6]) was greater than 1000 mg/kg; in series [2] (setting [7]), greater than 3000 mg/kg.

As to `COc1ccc(C(C#N)(CCCN(C)CCCOC(=O)c2cccc3c(=O)c(C)c(-c4ccccc4)oc23)C(C)C)cc1OC.Cl` (centres unmarked) [Example 4, 8-{3-[4-Cyano-4-(3,4-dimethoxyphenyl)-N,5-dimethylhexylamino]propoxycarbonyl}-3-methyl-4-oxo-2-phenyl-4H-1-benzopyran hydrochloride], the figures for the IC50 in series [1] (setting [4]) and in series [1] (setting [5]) were 500 nM and 1300 nM, respectively. In addition, the median lethal dose (LD50) at 168 h was greater than 1000 mg/kg in series [2] (setting [6]) and greater than 3000 mg/kg in series [2] (setting [7]). In addition, in series [3], the remaining at 3 h was 100%.

Consider `COc1ccc(C(C#N)(CCC[N+](C)([O-])CCCOC(=O)c2cccc3c(=O)c(C)c(-c4ccccc4)oc23)C(C)C)cc1OC` (centres unmarked) [Example 5, 8-{3-[4-Cyano-4-(3,4-dimethoxyphenyl)-N,5-dimethyl-N-oxohexylamino]propoxycarbonyl}-3-methyl-4-oxo-2-phenyl-4H-1-benzopyran hydrochloride x 0.25 H2 O], for which the IC50 in series [1] (setting [4]) was determined as 10000 nM; in series [1] (setting [5]), 2200 nM. The “activity of N-oxide compounds” value in series [1] is listed as “do not appear to be very active”. The median lethal dose (LD50) at 168 h is greater than 1000 mg/kg in series [2] (setting [6]) and greater than 3000 mg/kg in series [2] (setting [7]).

Take `CCN(CCCOC(=O)c1cccc2c(=O)c(C)c(-c3ccccc3)oc12)C(C)Cc1ccc(OC)cc1.Cl` (centres unmarked) [Example 6, 8-{3-[N-Ethyl-3-(4-methoxyphenyl)-2-propylamino]propoxycarbonyl}-3-methyl-4-oxo-2-phenyl-4H-1-benzopyran hydrochloride]: the values for the half-inhibitory concentration (IC50) in series [1] (setting [4]) and in series [1] (setting [5]) were 1700 nM and 4200 nM, respectively. Moreover, the values for the LD50 at 168 h in series [2] (setting [6]) and in series [2] (setting [7]) were greater than 1000 mg/kg and greater than 3000 mg/kg, respectively. The remaining at 3 h in series [3] worked out at 99%.

Turning to `COc1ccc(CC2c3cc(OC)c(OC)cc3CCN2CCCOC(=O)c2cccc3c(=O)c(C)c(-c4ccccc4)oc23)cc1OC` (centres unmarked) [Example 7, 8-{3-[1-(3,4-Dimethoxybenzyl)-6,7-dimethoxy-2H-1,2,3,4-tetrahydro-2-isoquinolinyl]propoxycarbonyl}-3-methyl-4-oxo-2-phenyl-4H-1-benzopyran hydrochloride], the IC50 in series [1] (setting [4]) came out at 1400 nM; in series [1] (setting [5]) it was 900 nM. Further, the values for the LD50 at 168 h in series [2] (setting [6]) and in series [2] (setting [7]) were greater than 1000 mg/kg and greater than 3000 mg/kg, respectively. For the same compound, the remaining at 3 h in series [3] was 99%.

For `COc1ccc(C(C#N)(CCCN(C)CCCNC(=O)c2cccc3c(=O)c(C)c(-c4ccccc4)oc23)C(C)C)cc1OC` (centres unmarked) [Example 11, 8-{3-[4-Cyano-4-(3,4-dimethoxyphenyl)-N,5-dimethylhexylamino]propylcarbamoyl}-3-methyl-4-oxo-2-phenyl-4H-1-benzopyran hydrochloride hemihydrate], the results for the half-maximal inhibitory concentration (IC50) in series [1] (setting [4]) and in series [1] (setting [5]) were 600 nM and 500 nM, respectively. In addition, the LD50 at 168 h in series [2] (setting [6]) stood at 224 mg/kg; in series [2] (setting [7]), 400 mg/kg. Also, the “relative therapeutic index (LD50/IC50) versus Flavoxate” value in the series with Female Albino Swiss mice is reported as “considerably safer than Flavoxate”.

`COc1ccc(CCN(C)CCCNC(=O)c2cccc3c(=O)c(C)c(-c4ccccc4)oc23)cc1OC` [Example 12, 8-{3-[2-(3,4-Dimethoxyphenyl)-N-methylethylamino]propylcarbamoyl}-3-methyl-4-oxo-2-phenyl-4H -1-benzopyran hydrochloride 0.3-hydrate]: the IC50 is 2200 nM in series [1] (setting [4]) and 1400 nM in series [1] (setting [5]). Also, the results for the LD50 at 168 h in series [2] (setting [6]) and in series [2] (setting [7]) were 129 mg/kg and 716 mg/kg, respectively.

For `COc1ccc(C(C#N)(CCCN(C)CCNC(=O)c2cccc3c(=O)c(C)c(-c4ccccc4)oc23)C(C)C)cc1OC` (centres unmarked) [Example 13, 8-{2-[4-Cyano-4-(3,4-dimethoxyphenyl)-N,5-dimethylhexylamino]ethylcarbamoyl}-3-methyl-4-oxo-2-phenyl-4H-1-benzopyran hydrochloride hemihydrate], the results for the concentration for half-maximal inhibition (IC50) in series [1] (setting [4]) and in series [1] (setting [5]) were 300 nM and 100 nM, respectively. Besides, the LD50 at 168 h in series [2] (setting [6]) was 422 mg/kg.

As to `COc1ccc(C(C#N)(CCCN(C)CC(=O)NCc2cccc3c(=O)c(C)c(-c4ccccc4)oc23)C(C)C)cc1OC.Cl.O.O` (centres unmarked) [Example 16, 8-{2-[4-Cyano-4-(3,4-dimethoxyphenyl)-N,5-dimethylhexylamino]-1-oxoethylaminomethyl}-3-methyl-4-oxo-2-phenyl-4H -1-benzopyran hydrochloride dihydrate], the half-maximal inhibitory concentration (IC50) was determined as 500 nM in series [1] (setting [4]) and 900 nM in series [1] (setting [5]). Moreover, the 50% lethal dose (LD50) at 168 h was found to be 440 mg/kg in series [2] (setting [6]) and 1280 mg/kg in series [2] (setting [7]).

Regarding `COc1ccc(C(C#N)(CCCN(C)CC(=O)N(C)Cc2cccc3c(=O)c(C)c(-c4ccccc4)oc23)C(C)C)cc1OC.Cl.O` (centres unmarked) [Example 17, 8-{2-[4-Cyano-4-(3,4-dimethoxyphenyl)-N,5-dimethylhexylamino]-N-methyl-1-oxo-ethylaminomethyl}-3-methyl-4-oxo-2-phenyl-4H-1-benzopyran hydrochloride hydrate], the IC50 in series [1] (setting [4]) worked out at 200 nM; in series [1] (setting [5]) it was 400 nM. The LD50 at 168 h in series [2] (setting [6]) stood at 334 mg/kg; in series [2] (setting [7]), 1710 mg/kg.

In the case of `COc1ccc(C(C#N)(CCCN(C)CCOCc2cccc3c(=O)c(C)c(-c4ccccc4)oc23)C(C)C)cc1OC.Cl.O` (centres unmarked) [Example 18, 8-{2-[4-Cyano-4-(3,4-dimethoxyphenyl)-5,N-dimethylhexylamino]ethoxymethyl}-3-methyl-4-oxo-2-phenyl-4H-1-benzopyran hydrochloride hydrate], the IC50 is 300 nM in series [1] (setting [4]) and 400 nM in series [1] (setting [5]). Moreover, the LD50 at 168 h stood at 334 mg/kg in series [2] (setting [6]) and 974 mg/kg in series [2] (setting [7]).

In the case of `COc1ccc(C(C#N)(CCCN(C)CCSCc2cccc3c(=O)c(C)c(-c4ccccc4)oc23)C(C)C)cc1OC.Cl` (centres unmarked) [Example 19, 8-{2-[4-Cyano-4-(3,4-dimethoxyphenyl)-5,N-dimethylhexylamino]ethylthiomethyl}-3-methyl-4-oxo-2-phenyl-4H-1-benzopyran hydrochloride], the results for the half-inhibitory concentration (IC50) in series [1] (setting [4]) and in series [1] (setting [5]) were 500 nM and 1300 nM, respectively. Further, the LD50 at 168 h in series [2] (setting [6]) was greater than 1000 mg/kg; in series [2] (setting [7]), greater than 3000 mg/kg.

Consider `COc1ccc(C(C#N)(CCCN(C)CCS(=O)(=O)Cc2cccc3c(=O)c(C)c(-c4ccccc4)oc23)C(C)C)cc1OC` (centres unmarked) [Example 20, 8-{2-[4-Cyano-4-(3,4-dimethoxyphenyl)-5,N-dimethylhexylamino]ethylsulphonylmethyl}-3-methyl-4-oxo-2-phenyl-4H-1-benzopyran hydrochloride hemihydrate], for which the 50% inhibitory concentration (IC50) in series [1] (setting [4]) and in series [1] (setting [5]) was 500 nM throughout. Further, the values for the median lethal dose (LD50) at 168 h in series [2] (setting [6]) and in series [2] (setting [7]) were greater than 1000 mg/kg and greater than 3000 mg/kg, respectively.
